Source: ChEMBL document CHEMBL3045768, “Potential anti-inflammatory activity and ulcerogenicity study of some novel pyrimido[4,5:4,5]pyrimido[1,6-a]azepine derivatives” (Med Chem Res, 2012)

Legend:
[1] = test system: Rattus norvegicus; assay: Anti-inflammatory activity inRattus norvegicus albino (rat) assessed as inhibition of carrageenan-induced paw edema at 20 umol/kg, ip administered 1 hr before challenge measured after 2 hr; assay type: functional
[2] = test system: Rattus norvegicus; assay: Anti-inflammatory activity inRattus norvegicus albino (rat) assessed as inhibition of carrageenan-induced paw edema at 20 umol/kg, ip administered 1 hr before challenge measured after 3 hr relative to diclofenac-sodium; assay type: functional
[3] = test system: Rattus norvegicus; assay: Anti-inflammatory activity inRattus norvegicus albino (rat) assessed as inhibition of carrageenan-induced paw edema at 20 umol/kg, ip administered 1 hr before challenge measured after 1 hr; assay type: functional
[4] = test system: Rattus norvegicus; assay: Anti-inflammatory activity inRattus norvegicus albino (rat) assessed as inhibition of carrageenan-induced paw edema at 20 umol/kg, ip administered 1 hr before challenge measured after 3 hr; assay type: functional
[5] = test system: Rattus norvegicus; assay: Toxicity inRattus norvegicus albino (rat) assessed as ulcerogenicity at 20 umol/kg, po qd for 3 days; assay type: organism-based; conditions: in vivo, 72 h

| SMILES | inhibition in vivo at 20 µmol/kg [1] | inhibition in vivo at 20 µmol/kg [2] | inhibition in vivo at 20 µmol/kg [3] | inhibition in vivo at 20 µmol/kg [4] | UI [5] |
| --- | --- | --- | --- | --- | --- |
| O=C1N(c2ccccc2)c2ncn(CN3CCOCC3)c(=O)c2C2C(N3CCCC3)CCCCN12 (configuration not stated) | 18.5% | 34.3% | 13.1% | 30.1% | – |
| O=C1N(c2ccccc2)c2nc(CN3CCCCC3)[nH]c(=O)c2C2C(N3CCCC3)CCCCN12 (configuration not stated) | 37.2% | 48.4% | 28% | 42.4% | – |
| N#CC1=C(NC(=O)c2ccccc2O)N(c2ccccc2)C(=O)N2CCCCC(N3CCCC3)C12 (configuration not stated) | 53.8% | 74.7% | 44.7% | 65.4% | 3.4 |
| O=C1N(c2ccccc2)c2ncn(CN3CCCC3)c(=O)c2C2C(N3CCCC3)CCCCN12 (configuration not stated) | 22.3% | 37.2% | 16.2% | 32.6% | – |
| N#CC1=C(NC(=O)Cc2ccccc2Nc2c(Cl)cccc2Cl)N(c2ccccc2)C(=O)N2CCCCC(N3CCCC3)C12 (configuration not stated) | 48.5% | 76.7% | 31.9% | 67.2% | 4.1 |
| O=C1N(c2ccccc2)c2ncnc(N3CCCC3)c2C2C(N3CCCC3)CCCCN12 (configuration not stated) | 14.8% | 31.1% | 9.5% | 27.3% | – |
| O=C1N(c2ccccc2)c2nc(CN3CCCC3)[nH]c(=O)c2C2C(N3CCCC3)CCCCN12 (configuration not stated) | 42.2% | 53.6% | 36.2% | 48.7% | – |
| O=C1N(c2ccccc2)c2ncnc(N3CCCCC3)c2C2C(N3CCCC3)CCCCN12 (configuration not stated) | 17.4% | 31.9% | 10.3% | 27.9% | – |
| O=C1N(c2ccccc2)c2nc(-c3ccccc3O)[nH]c(=O)c2C2C(N3CCCC3)CCCCN12 (configuration not stated) | 27.9% | 42.5% | 21.9% | 37.2% | – |
| O=C1N(c2ccccc2)c2nc(CCN3CCCC3)[nH]c(=O)c2C2C(N3CCCC3)CCCCN12 (configuration not stated) | 32.5% | 50.6% | 20.5% | 44.3% | – |
| O=C(Cc1ccccc1Nc1c(Cl)cccc1Cl)SCc1nc2c(c(=O)[nH]1)C1C(N3CCCC3)CCCCN1C(=O)N2c1ccccc1 (configuration not stated) | 45.8% | 61.3% | 33.1% | 53.1% | 2.6 |
